Here are results for 30 compounds from patent US10160762B2, “6-alkyl dihydropyrazolopyrimidinone compounds as PDE2 inhibitors” (Merck Sharp & Dohme Corp., priority 2015, dated 2018).

Molecules are shown by their SMILES. Where two headings read alike, the source gives them in different places.

For this assay, the target named is T1, human PDE2A1 (Homo sapiens, UniProt O00408).
T1 construct: GST; purchased BPS Bioscience (San Diego, Calif.) 60020; host or cells: insect cells
The assay is described as follows: IMAP FP PDE assay, human PDE2A1. The class given is biochemical. The method in brief:
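FP (IMAP) read after 60 min room-temperature reaction of insect-cell GST-human PDE2A1 with 50 nM FAM-cAMP plus 1000 nM cGMP (pH 7.2 Tris, Mg2+, DTT). Compounds titrated 3-fold over ten points. Apparent Ki derived assuming KM of 10,000 nM; enzyme at 20% substrate turnover.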

Where [1] appears, read: Lab B, read-out: Human PDE2 Ki (nM) Lab B.
Setting [2] is: Lab A, read-out: Human PDE2 Ki (nM) Lab A.

T1 sequence (O00408 1-920 isoform O00408-2): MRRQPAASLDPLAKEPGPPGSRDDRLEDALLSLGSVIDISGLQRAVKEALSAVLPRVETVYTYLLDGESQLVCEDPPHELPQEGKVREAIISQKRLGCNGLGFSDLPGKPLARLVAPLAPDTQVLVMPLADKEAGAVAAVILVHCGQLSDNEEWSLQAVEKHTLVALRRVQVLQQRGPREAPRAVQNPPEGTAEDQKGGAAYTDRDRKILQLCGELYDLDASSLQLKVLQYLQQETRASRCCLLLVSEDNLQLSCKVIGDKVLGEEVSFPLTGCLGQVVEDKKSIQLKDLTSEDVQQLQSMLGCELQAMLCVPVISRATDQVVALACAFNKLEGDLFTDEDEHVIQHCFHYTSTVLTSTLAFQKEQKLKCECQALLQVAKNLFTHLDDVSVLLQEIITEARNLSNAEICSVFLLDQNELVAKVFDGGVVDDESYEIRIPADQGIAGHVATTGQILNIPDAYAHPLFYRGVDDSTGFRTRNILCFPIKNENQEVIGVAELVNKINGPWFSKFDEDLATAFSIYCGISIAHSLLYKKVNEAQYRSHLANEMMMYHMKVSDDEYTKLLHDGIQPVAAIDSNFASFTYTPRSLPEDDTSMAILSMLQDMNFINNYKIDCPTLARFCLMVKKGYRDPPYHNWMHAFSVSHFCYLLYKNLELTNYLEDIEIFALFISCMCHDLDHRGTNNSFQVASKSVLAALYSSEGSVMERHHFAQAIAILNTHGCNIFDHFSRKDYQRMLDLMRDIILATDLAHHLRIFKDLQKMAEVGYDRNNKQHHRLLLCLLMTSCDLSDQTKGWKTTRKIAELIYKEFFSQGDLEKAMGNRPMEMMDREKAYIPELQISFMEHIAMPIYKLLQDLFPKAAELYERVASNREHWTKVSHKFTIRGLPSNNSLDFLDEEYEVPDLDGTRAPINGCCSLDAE

The term Ki denotes the equilibrium dissociation constant of an inhibitor or competing ligand from its target. `Cc1nc2c(c(CO)nn2C(c2ccc(C(F)(F)F)cc2)C(F)(F)F)c(=O)[nH]1` (stereo not shown) [Example 6, 3-(Hydroxymethyl)-6-methyl-1-(2,2,2-trifluoro-1-(4-(trifluoromethyl)phenyl)ethyl)-1H-pyrazolo[3,4-d]pyrimidin-4(5H)-one]: the Ki under setting [1] is 3.1 nM. Take `CCc1nc2c(c(C)nn2C(C)c2ccc(C(F)(F)F)cc2)c(=O)[nH]1` (stereo not shown) [Example 38, 6-Ethyl-3-methyl-1-{1-[4-(trifluoromethyl)phenyl]ethyl}-1,5-dihydro-4H-pyrazolo[3,4-d]pyrimidin-4-one]: the Ki under setting [2] was 28 nM. Still for that read-out and setting: in the case of `Cc1nn(C(C)c2ccc(C(F)(F)F)cc2)c2nc(CF)[nH]c(=O)c12` (stereo not shown) [Example 51, 6-(Fluoromethyl)-3-methyl-1-{1-[4-(trifluoromethyl)phenyl]ethyl}-1,5-dihydro-4H-pyrazolo[3,4-d]pyrimidin-4-one] it was 50 nM. On to `Cc1nc2c(c(CO)nn2C(C)c2ccc(OC(F)(F)F)c(F)c2)c(=O)[nH]1` (single isomer, unassigned) [Example 11, (S)- or (R)-1-(1-(3-Fluoro-4-(trifluoromethoxy)phenyl)ethyl)-3-(hydroxymethyl)-6-methyl-1H-pyrazolo[3,4-d]pyrimidin-4(5H)-one], for which, under setting [1], the Ki is 1.9 nM. In the case of `COc1ccc(Cc2nc3c(c(C)nn3C(C)c3ccc(C(F)(F)F)cc3)c(=O)[nH]2)cc1OC` (stereo not shown) [Example 44, 6-(3,4-Dimethoxybenzyl)-3-methyl-1-{1-[4-(trifluoromethyl)phenyl]ethyl}-1,5-dihydro-4H-pyrazolo[3,4-d]pyrimidin-4-one], under setting [2], the Ki is 2.1 nM.

Turning to `Cc1nc2c(c(CF)nn2C(C)c2ccc(C(C)(C)C)cc2)c(=O)[nH]1` (single isomer, unassigned) [Example 215, (S)- or (R)-1-(1-(4-tert-Butylphenyl)ethyl)-3-(fluoromethyl)-6-methyl-1H-pyrazolo[3,4-d]pyrimidin-4(5H)-one], the Ki under setting [1] was found to be 0.48 nM. On to `Cc1nc2c(c(CO)nn2C(c2ccc(C(F)(F)F)c(F)c2)C(C)(C)C)c(=O)[nH]1` (single isomer, unassigned) [Example 129, (S)- or (R)-1-(1-(3-Fluoro-4-(trifluoromethyl)phenyl)-2,2-dimethylpropyl)-3-(hydroxyl-methyl)-6-methyl-1H-pyrazolo-[3,4-d]pyrimidin-4(5H)-one], for which the Ki under setting [1] was determined as 8.9 nM. In the case of `Cc1nc2c(c(CF)nn2C(C)c2ccc(CC(F)(F)F)cc2)c(=O)[nH]1` (single isomer, unassigned) [Example 211, (S)- or (R)-3-(Fluoromethyl)-6-methyl-1-(1-(4-(2,2,2-trifluoroethyl)phenyl)ethyl)-1H-pyrazolo[3,4-d]pyrimidin-4(5H)-one], the Ki under setting [1] came to 0.65 nM. For the compound `Cc1nc2c(c(CO)nn2C(c2ccc(C(F)(F)F)cc2)C2CC2)c(=O)[nH]1` (stereo not shown) [Example 28, 1-(Cyclopropyl(4-(trifluoromethyl)phenyl)methyl)-3-(hydroxymethyl)-6-methyl-1H-pyrazolo[3,4-d]pyrimidin-4(5H)-one], the Ki under setting [1] came to 1.6 nM. On the same count and under the same terms, under `Cc1nc2c(c(CO)nn2C(C)c2ccc(C(F)(F)F)c(F)c2)c(=O)[nH]1` (single isomer, unassigned) [Example 13, (S)- or (R)-1-(1-(3-Fluoro-4-(trifluoromethyl)phenyl)ethyl)-3-(hydroxymethyl)-6-methyl-1H-pyrazolo[3,4-d]pyrimidin-4(5H)-one] stands 1.7 nM. As for `Cc1nc2c(c(CF)nn2C(C)c2ccc(C(F)(F)F)c(F)c2)c(=O)[nH]1` (stereo not shown) [Example 230, 1-(1-(3-Fluoro-4-(trifluoromethyl)phenyl)ethyl)-3-(fluoromethyl)-6-methyl-1H-pyrazolo[3,4-d]pyrimidin-4(5H)-one], the Ki is, setting by setting: under setting [2], 1.5 nM; under setting [1], 3.6 nM. Consider `Cc1nc2c(c(CO)nn2C(c2ccc(C(F)(F)F)cc2)C(C)C)c(=O)[nH]1` (stereo not shown) [Example 5, 3-(Hydroxymethyl)-6-methyl-1-(2-methyl-1-(4-(trifluoromethyl)phenyl)propyl)-1H-pyrazolo[3,4-d]pyrimidin-4(5H)-one], for which the Ki worked out at 0.56 nM under setting [2] and 0.74 nM under setting [1]. `COCc1nc2c(c(C)nn2C(C)c2ccc(C(F)(F)F)cc2)c(=O)[nH]1` (stereo not shown) [Example 48, 6-(Methoxymethyl)-3-methyl-1-{1-[4-(trifluoromethyl)phenyl]ethyl}-1,5-dihydro-4H-pyrazolo[3,4-d]pyrimidin-4-one]: the Ki under setting [2] amounted to 21 nM. For `Cc1nn(C(C)c2ccc(C(F)(F)F)cc2)c2nc(C3CCCC3)[nH]c(=O)c12` (stereo not shown) [Example 40, 6-Cyclopentyl-3-methyl-1-{1-[4-(trifluoromethyl)phenyl]ethyl}-1,5-dihydro-4H-pyrazolo[3,4-d]pyrimidin-4-one], the Ki under setting [2] was 197 nM. Take `Cc1nc2c(c(CO)nn2C(C)c2ccc(C(F)(F)F)cc2)c(=O)[nH]1` (stereo not shown) [Example 7, 3-(Hydroxymethyl)-6-methyl-1-(1-(4-(trifluoromethyl)phenyl)ethyl)-1H-pyrazolo[3,4-d]pyrimidin-4(5H)-one]: the Ki is, setting by setting: under setting [2], 11 nM; under setting [1], 17 nM. As to `Cc1nc2c(c(CO)nn2C(c2ccc(OC(F)(F)F)cc2)C2CC2)c(=O)[nH]1` (single isomer, unassigned) [Example 94, (R)- or (S)-1-(Cyclopropyl(4-(trifluoromethoxy)phenyl)methyl)-3-(hydroxymethyl)-6-methyl-1H-pyrazolo[3,4-d]pyrimidin-4(5H)-one], under setting [1], the Ki was 18 nM. Consider `Cc1nc2c(c(C(F)F)nn2C(C)c2ccc(C(F)(F)F)cc2)c(=O)[nH]1` (single isomer, unassigned) [Example 176], for which, under setting [1], the Ki was determined as 1.3 nM.

On to `Cc1nc2c(c(CF)nn2C(C)c2ccc(OC(F)(F)F)c(F)c2)c(=O)[nH]1` (single isomer, unassigned) [Example 217, (S)- or (R)-1-(1-(3-Fluoro-4-(trifluoromethoxy)phenyl)ethyl)-3-(fluoromethyl)-6-methyl-1H-pyrazolo[3,4-d]pyrimidin-4(5H)-one], for which the Ki under setting [1] worked out at 0.7 nM. For `Cc1nc2c(c(C(C)(C)O)nn2C(C)c2ccc(C(F)(F)F)cc2)c(=O)[nH]1` (stereo not shown) [Example 326, 3-(1-Hydroxy-1-methylethyl)-6-methyl-1-{1-[4-(trifluoromethyl)phenyl]ethyl}-1,5-dihydro-4H-pyrazolo[3,4-d]pyrimidin-4-one], the Ki under setting [2] stood at 70 nM.

As for `Cc1nc2c(c(CF)nn2C2(c3ccc(C(F)(F)F)cc3)CCC2)c(=O)[nH]1` [Example 202, 3-(Fluoromethyl)-6-methyl-1-(1-(4-(trifluoromethyl)phenyl)cyclobutyl)-1H-pyrazolo[3,4-d]pyrimidin-4(5H)-one], under setting [1], the Ki was found to be 2.9 nM. Take `Cc1nc2c(c(CF)nn2C(C)c2ccc(OC(F)(F)F)cc2)c(=O)[nH]1` (single isomer, unassigned) [Example 206, (R)- or (S)-3-(Fluoromethyl)-6-methyl-1-(1-(4-(trifluoro-methoxy-)phenyl)ethyl)-1H-pyrazolo[3,4-d]pyrimidin-4(5H)-one]: the Ki under setting [1] was determined as 83 nM. `Cc1nc2c(c(CO)nn2C(C)c2ccc(C(F)(F)F)c(F)c2)c(=O)[nH]1` (single isomer, unassigned) [Example 12, (R)- or (S)-1-(1-(3-Fluoro-4-(trifluoromethyl)phenyl)ethyl)-3-(hydroxymethyl)-6-methyl-1H-pyrazolo[3,4-d]pyrimidin-4(5H)-one]: under setting [1], the Ki was 205 nM. For `COc1ccc(Cc2nc3c(c(CF)nn3C(C)c3ccc(C(F)(F)F)cc3)c(=O)[nH]2)cc1OC` (single isomer, unassigned) [Example 222, (R)- or (S)-6-(3,4-Dimethoxybenzyl)-3-(fluoromethyl)-1-(1-(4-(trifluoromethyl)phenyl)ethyl)-1,5-dihydro-4H-pyrazolo[3,4-d]pyrimidin-4-one], the Ki under setting [2] was under 5.1 nM and the Ki under setting [1] is 0.34 nM. Turning to `Cc1nc2c(c(CF)nn2C(c2ccc(C(F)(F)F)cc2)C(F)(F)F)c(=O)[nH]1` (stereo not shown) [Example 201, 3-(Fluoromethyl)-6-methyl-1-(2,2,2-trifluoro-1-(4-(trifluoromethyl)phenyl)-ethyl)-1H-pyrazolo[3,4-d]pyrimidin-4(5H)-one], under setting [1], the Ki worked out at 2.6 nM. With `Cc1nn(C(C)c2ccc(C(F)(F)F)cc2)c2nc(-c3ccco3)[nH]c(=O)c12` (stereo not shown) [Example 49, 6-Furan-2-yl-3-methyl-1-{1-[4-(trifluoromethyl)phenyl]ethyl}-1,5-dihydro-4H-pyrazolo[3,4-d]pyrimidin-4-one], under setting [2], the Ki was found to be 5.4 nM. As for `Cc1nc2c(c(CO)nn2[C@@H](C)c2ccc(OC(F)(F)F)cc2)c(=O)[nH]1` [Example 158, (S)-3-(Hydroxymethyl)-6-methyl-1-(1-(4-(trifluoromethoxy)phenyl)ethyl)-1H-pyrazolo[3,4-d]pyrimidin-4(5H)-one], the Ki under setting [1] worked out at 3.1 nM. Take `Cc1nn(C(C)c2ccc(C(F)(F)F)cc2)c2nc(Cc3ccccc3O)[nH]c(=O)c12` (stereo not shown) [Example 31, 6-(2-Hydroxybenzyl)-3-methyl-1-(1-(4-(trifluoromethyl)phenyl)ethyl)-1H-pyrazolo[3,4-d]pyrimidin-4(5H)-one]: the Ki under setting [2] amounted to 43 nM. Consider `COc1ccc(Cc2nc3c(c(C)nn3C(C)c3ccc(C(F)(F)F)cc3)c(=O)[nH]2)cc1` (stereo not shown) [Example 46, 6-(4-Methoxybenzyl)-3-methyl-1-{1-[4-(trifluoromethyl)phenyl]ethyl}-1,5-dihydro-4H-pyrazolo[3,4-d]pyrimidin-4-one], for which, under setting [2], the Ki is 8.6 nM. As for `Cc1nc2c(c(CO)nn2[C@@H](c2ccc(C(C)(C)C)cc2)C(C)C)c(=O)[nH]1` [Example 160, (R)-1-(1-(4-tert-Butylphenyl)-2-methylpropyl)-3-(hydroxymethyl)-6-methyl-1H-pyrazolo[3,4-d]pyrimidin-4(5H)-one], under setting [1], the Ki came out at 0.36 nM. As to `Cc1nc2c(c(CO)nn2[C@H](c2ccc(C(C)(C)C)cc2)C(C)C)c(=O)[nH]1` [Example 159, (S)-1-(1-(4-tert-Butylphenyl)-2-methylpropyl)-3-(hydroxymethyl)-6-methyl-1H-pyrazolo[3,4-d]pyrimidin-4(5H)-one], under setting [1], the Ki came to 2 nM.
